Values of other authors as cited in publication PMC9851200, “Multiparameter phenotypic screening for endogenous TFEB and TFE3 translocation identifies novel chemical series modulating lysosome function” (Autophagy, 2022).

Legend:
Parameters in all cases: method as in original PKIS2 published data
[1] = target: T1, kinases (KINOMEscan panel) (Homo sapiens, UniProt O15111); conditions: cited from earlier work
T1 sequence (O15111 1-745): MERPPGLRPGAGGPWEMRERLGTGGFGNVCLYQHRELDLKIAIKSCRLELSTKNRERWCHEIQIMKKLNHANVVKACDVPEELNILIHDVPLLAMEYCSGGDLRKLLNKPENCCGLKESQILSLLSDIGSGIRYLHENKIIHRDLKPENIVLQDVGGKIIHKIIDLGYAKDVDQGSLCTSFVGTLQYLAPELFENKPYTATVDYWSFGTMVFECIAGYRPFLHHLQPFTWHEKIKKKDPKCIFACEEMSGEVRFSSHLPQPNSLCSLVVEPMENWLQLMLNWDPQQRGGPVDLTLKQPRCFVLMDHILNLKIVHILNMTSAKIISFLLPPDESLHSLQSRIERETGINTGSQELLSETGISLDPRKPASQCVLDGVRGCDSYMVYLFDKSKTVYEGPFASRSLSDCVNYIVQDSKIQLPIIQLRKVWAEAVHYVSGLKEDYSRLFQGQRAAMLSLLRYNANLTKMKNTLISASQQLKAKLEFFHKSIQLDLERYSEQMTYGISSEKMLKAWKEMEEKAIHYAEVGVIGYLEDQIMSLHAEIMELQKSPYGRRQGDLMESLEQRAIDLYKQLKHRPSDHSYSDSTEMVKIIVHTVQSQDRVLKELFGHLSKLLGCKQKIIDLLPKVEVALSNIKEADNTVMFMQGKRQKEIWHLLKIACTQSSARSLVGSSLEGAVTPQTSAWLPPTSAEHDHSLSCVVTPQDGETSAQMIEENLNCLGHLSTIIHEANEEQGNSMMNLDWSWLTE

[2] = target: kinases (KINOMEscan panel) (Homo sapiens, UniProt O75914); conditions: Published KINOMEscan; ref original PKIS2 published data; cited from earlier work
Sequence of kinases (KINOMEscan panel) (Homo sapiens, UniProt O75914) (O75914 whole entry): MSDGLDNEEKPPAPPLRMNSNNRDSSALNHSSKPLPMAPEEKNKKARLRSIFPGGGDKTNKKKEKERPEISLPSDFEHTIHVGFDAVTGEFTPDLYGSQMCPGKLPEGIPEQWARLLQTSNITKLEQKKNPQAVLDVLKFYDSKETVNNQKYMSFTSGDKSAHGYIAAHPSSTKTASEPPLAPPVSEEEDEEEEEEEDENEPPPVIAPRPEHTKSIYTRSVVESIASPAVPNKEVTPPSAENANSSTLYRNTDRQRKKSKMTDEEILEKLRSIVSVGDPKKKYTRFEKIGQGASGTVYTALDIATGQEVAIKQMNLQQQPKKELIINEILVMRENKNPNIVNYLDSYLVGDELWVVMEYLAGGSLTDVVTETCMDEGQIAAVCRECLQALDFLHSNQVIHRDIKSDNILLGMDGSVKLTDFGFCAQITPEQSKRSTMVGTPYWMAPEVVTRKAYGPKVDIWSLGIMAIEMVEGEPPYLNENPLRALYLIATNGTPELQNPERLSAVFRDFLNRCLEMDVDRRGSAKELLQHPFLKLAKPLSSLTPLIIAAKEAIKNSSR

[3] = target: kinases (KINOMEscan panel) (Homo sapiens, UniProt P12931); conditions: SRC; Published KINOMEscan; ref original PKIS2 published data; cited from earlier work
Sequence of kinases (KINOMEscan panel) (Homo sapiens, UniProt P12931) (P12931 whole entry): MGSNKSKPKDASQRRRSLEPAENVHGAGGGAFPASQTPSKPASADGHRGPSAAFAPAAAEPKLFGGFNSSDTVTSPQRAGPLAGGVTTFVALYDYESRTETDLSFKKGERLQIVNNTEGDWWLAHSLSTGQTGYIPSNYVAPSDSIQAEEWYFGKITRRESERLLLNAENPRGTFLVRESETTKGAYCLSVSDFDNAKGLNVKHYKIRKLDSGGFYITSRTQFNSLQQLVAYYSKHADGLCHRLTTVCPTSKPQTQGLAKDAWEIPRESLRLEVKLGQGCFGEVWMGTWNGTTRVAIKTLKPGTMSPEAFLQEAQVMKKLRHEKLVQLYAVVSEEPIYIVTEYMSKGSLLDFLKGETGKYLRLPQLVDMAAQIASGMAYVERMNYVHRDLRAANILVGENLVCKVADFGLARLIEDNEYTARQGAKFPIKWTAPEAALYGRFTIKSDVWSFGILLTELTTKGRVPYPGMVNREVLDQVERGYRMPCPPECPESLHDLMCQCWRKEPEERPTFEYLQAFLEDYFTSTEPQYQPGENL

[4] = target: kinases (KINOMEscan panel) (Homo sapiens, UniProt P49336); conditions: CDK8; Published KINOMEscan; ref original PKIS2 published data; cited from earlier work
Sequence of kinases (KINOMEscan panel) (Homo sapiens, UniProt P49336) (P49336 whole entry): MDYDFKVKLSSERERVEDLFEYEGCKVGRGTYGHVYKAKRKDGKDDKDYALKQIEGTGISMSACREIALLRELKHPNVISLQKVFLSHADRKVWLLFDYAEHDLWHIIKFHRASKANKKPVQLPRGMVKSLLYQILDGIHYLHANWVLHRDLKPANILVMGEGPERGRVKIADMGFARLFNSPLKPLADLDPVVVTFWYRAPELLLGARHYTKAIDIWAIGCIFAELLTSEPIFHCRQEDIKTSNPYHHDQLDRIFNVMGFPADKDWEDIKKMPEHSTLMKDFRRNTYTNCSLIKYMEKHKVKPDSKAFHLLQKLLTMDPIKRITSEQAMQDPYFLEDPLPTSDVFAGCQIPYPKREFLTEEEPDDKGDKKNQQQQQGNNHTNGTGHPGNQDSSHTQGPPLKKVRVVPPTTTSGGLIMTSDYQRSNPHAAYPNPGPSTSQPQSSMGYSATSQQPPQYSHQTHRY

[5] = target: kinases (KINOMEscan panel) (Homo sapiens, UniProt P49760); conditions: kinase CLK2; Published KINOMEscan; ref original PKIS2 published data; cited from earlier work
Sequence of kinases (KINOMEscan panel) (Homo sapiens, UniProt P49760) (P49760 whole entry): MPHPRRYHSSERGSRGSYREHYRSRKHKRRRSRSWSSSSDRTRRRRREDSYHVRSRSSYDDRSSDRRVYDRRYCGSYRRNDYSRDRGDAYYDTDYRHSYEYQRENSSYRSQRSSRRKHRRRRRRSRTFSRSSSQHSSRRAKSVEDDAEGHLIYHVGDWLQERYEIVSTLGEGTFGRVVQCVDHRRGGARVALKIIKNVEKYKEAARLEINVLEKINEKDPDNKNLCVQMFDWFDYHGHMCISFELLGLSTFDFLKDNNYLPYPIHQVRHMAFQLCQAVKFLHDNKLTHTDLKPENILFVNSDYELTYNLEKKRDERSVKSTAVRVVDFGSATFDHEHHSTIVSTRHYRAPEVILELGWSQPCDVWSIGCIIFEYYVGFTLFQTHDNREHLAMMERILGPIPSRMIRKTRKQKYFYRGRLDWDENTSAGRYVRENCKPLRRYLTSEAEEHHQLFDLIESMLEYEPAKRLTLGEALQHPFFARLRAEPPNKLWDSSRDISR

[6] = target: T2, kinases (KINOMEscan panel) (Homo sapiens, UniProt P51813); conditions: BMX; Published KINOMEscan; ref original PKIS2 published data; cited from earlier work
T2 sequence (P51813 1-675): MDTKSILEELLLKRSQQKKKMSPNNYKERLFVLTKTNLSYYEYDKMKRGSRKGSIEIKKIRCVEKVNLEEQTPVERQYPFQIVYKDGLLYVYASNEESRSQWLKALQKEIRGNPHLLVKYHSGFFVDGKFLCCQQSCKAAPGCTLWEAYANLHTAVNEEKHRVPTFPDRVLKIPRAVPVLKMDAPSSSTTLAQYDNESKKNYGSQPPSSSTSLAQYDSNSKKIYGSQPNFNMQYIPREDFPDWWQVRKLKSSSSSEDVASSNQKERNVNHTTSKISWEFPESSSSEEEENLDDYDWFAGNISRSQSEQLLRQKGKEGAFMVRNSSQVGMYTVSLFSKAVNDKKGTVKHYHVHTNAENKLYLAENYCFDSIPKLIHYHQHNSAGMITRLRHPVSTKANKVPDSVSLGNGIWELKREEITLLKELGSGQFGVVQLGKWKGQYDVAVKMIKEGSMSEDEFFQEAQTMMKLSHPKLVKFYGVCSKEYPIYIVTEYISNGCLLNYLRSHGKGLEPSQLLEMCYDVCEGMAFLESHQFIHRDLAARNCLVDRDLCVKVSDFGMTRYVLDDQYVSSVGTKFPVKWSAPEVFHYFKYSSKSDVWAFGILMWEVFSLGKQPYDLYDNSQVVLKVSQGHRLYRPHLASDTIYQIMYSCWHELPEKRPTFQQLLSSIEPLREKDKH

[7] = target: kinases (KINOMEscan panel) (Homo sapiens, UniProt Q04759); conditions: kinase PRKCQ; Published KINOMEscan; ref original PKIS2 published data; cited from earlier work
Sequence of kinases (KINOMEscan panel) (Homo sapiens, UniProt Q04759) (Q04759 whole entry): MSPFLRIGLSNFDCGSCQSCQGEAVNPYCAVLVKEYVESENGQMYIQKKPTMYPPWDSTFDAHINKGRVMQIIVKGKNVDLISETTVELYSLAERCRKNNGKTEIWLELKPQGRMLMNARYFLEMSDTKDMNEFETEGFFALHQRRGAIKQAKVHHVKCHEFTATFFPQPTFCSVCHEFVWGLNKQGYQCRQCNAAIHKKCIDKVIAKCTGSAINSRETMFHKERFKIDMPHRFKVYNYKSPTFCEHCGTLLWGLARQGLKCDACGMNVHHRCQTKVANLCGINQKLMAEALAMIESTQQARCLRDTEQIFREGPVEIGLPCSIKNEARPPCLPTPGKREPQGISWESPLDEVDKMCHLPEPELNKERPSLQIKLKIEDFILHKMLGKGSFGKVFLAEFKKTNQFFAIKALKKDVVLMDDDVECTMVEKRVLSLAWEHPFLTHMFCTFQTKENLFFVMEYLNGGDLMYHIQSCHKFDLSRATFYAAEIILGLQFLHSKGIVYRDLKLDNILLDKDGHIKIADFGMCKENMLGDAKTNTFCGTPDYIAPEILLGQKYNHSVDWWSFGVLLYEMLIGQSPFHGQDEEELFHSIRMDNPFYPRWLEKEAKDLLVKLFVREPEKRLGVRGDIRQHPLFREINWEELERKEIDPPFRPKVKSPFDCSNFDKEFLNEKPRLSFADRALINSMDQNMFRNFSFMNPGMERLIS

[8] = target: kinases (KINOMEscan panel) (Homo sapiens, UniProt Q07002); conditions: kinase CDK18; Published KINOMEscan; ref original PKIS2 published data; cited from earlier work
Sequence of kinases (KINOMEscan panel) (Homo sapiens, UniProt Q07002) (Q07002 whole entry): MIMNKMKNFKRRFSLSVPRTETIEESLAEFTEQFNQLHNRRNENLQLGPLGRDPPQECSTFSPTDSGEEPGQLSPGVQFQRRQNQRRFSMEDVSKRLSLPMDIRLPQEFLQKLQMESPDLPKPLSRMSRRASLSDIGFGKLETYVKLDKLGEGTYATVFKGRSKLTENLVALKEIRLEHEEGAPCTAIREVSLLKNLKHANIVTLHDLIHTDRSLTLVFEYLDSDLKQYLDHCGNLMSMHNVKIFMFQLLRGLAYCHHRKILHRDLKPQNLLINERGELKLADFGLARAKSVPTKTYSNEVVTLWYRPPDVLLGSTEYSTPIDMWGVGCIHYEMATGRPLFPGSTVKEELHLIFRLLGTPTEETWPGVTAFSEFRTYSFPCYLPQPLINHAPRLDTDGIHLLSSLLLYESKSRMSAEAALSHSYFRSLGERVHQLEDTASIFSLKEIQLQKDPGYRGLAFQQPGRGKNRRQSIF

[9] = target: kinases (KINOMEscan panel) (Homo sapiens, UniProt Q13464); conditions: ROCK1; Published KINOMEscan; ref original PKIS2 published data; cited from earlier work
Sequence of kinases (KINOMEscan panel) (Homo sapiens, UniProt Q13464) (Q13464 whole entry): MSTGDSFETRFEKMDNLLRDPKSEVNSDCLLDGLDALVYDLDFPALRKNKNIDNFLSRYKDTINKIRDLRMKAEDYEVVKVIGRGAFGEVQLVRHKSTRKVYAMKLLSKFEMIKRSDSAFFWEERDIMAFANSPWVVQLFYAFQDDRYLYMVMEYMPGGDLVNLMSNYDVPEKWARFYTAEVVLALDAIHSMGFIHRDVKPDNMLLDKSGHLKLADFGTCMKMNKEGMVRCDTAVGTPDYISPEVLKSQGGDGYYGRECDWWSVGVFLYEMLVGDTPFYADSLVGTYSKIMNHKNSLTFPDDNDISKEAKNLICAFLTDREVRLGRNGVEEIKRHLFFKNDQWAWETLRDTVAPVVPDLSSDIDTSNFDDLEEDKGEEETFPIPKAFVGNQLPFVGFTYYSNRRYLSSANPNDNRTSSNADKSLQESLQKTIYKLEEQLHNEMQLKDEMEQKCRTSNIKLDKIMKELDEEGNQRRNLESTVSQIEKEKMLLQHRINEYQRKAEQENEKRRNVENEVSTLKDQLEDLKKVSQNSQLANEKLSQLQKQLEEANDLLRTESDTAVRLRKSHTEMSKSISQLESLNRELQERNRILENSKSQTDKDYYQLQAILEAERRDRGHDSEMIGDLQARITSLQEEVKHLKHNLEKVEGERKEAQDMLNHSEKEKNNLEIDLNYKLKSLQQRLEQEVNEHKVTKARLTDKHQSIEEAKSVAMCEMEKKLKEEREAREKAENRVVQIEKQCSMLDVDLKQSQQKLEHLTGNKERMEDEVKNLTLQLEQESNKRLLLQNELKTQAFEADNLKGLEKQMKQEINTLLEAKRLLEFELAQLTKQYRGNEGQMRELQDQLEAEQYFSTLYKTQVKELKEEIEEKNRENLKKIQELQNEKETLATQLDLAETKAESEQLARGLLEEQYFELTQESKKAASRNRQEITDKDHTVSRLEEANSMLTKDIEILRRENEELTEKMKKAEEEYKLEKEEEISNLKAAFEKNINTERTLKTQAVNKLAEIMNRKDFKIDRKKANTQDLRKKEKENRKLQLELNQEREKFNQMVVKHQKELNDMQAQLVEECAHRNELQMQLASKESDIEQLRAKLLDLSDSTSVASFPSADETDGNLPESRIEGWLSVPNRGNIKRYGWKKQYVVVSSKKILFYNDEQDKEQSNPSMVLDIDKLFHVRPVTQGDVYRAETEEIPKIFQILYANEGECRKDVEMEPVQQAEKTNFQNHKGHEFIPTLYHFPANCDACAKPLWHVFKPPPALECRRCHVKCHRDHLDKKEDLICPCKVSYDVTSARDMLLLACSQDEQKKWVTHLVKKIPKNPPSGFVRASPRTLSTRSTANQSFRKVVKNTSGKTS

[10] = target: T3, kinases (KINOMEscan panel) (Homo sapiens, UniProt Q9BRS2); conditions: RIOK1; Published KINOMEscan; ref original PKIS2 published data; cited from earlier work
T3 sequence (Q9BRS2 1-568): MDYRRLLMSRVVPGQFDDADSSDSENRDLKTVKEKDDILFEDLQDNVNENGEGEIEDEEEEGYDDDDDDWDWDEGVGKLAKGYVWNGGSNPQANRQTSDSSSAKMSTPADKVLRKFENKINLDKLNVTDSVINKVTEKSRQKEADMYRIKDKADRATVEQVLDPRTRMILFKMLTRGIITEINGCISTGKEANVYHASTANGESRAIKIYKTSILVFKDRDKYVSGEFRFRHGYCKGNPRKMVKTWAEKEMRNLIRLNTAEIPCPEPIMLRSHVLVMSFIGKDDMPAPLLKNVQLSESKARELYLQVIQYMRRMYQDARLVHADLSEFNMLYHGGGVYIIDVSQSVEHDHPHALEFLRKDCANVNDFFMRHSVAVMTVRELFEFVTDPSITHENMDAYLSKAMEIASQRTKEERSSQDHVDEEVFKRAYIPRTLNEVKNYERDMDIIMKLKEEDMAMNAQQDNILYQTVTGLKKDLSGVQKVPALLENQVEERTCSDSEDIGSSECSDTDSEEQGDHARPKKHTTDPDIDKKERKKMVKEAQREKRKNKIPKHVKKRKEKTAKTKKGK

Cc1cccc(-c2nc(Nc3ccncc3)c3ccccc3n2)n1 [NK215]
KINOMEscan CHUK/IKK-alpha [1]: 0 | KINOMEscan PAK3 [2]: 0 | KINOMEscan SRC [3]: 20 | KINOMEscan CDK8 [4]: 65 | KINOMEscan CLK2 [5]: 8 | KINOMEscan BMX [6]: 6 | KINOMEscan PRKCQ [7]: 0 | KINOMEscan CDK18 [8]: 0 | KINOMEscan ROCK1 [9]: 0 | KINOMEscan RIOK1 [10]: 0
